From PubChem BioAssay (NCI)
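Five compound concentrations were applied to cells in 96-well plates for 48 hours; endpoints were derived by simple linear interpolation of the resulting dose-response curve. The concentration for 50% growth inhibition is given as GI50. TGI marks complete inhibition of growth.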

Key:
Experiment in all cases: NCI tumour cell line growth inhibition, 48 h
786-0 renal = system: 786-0 renal
A498 renal = system: A498 renal
A549 NSCLC = system: A549 NSCLC
ACHN renal = system: ACHN renal
BT-549 breast = system: BT-549 breast
CAKI-1 renal = system: CAKI-1 renal
CCRF-CEM leukemia = system: CCRF-CEM leukemia
COLO 205 colon = system: COLO 205 colon
DU-145 prostate = system: DU-145 prostate
EKVX NSCLC = system: EKVX NSCLC
HCC-2998 colon = system: HCC-2998 colon
HCT-116 colon = system: HCT-116 colon
HCT-15 colon = system: HCT-15 colon
HL-60(TB) leukemia = system: HL-60(TB) leukemia
HOP-62 NSCLC = system: HOP-62 NSCLC
HOP-92 NSCLC = system: HOP-92 NSCLC
HS 578T breast = system: HS 578T breast
HT29 colon = system: HT29 colon
IGROV1 ovarian = system: IGROV1 ovarian
K-562 leukemia = system: K-562 leukemia
KM12 colon = system: KM12 colon
LOX IMVI melanoma = system: LOX IMVI melanoma
M14 melanoma = system: M14 melanoma
MALME-3M melanoma = system: MALME-3M melanoma
MCF7 breast = system: MCF7 breast
MDA-MB-231 breast = system: MDA-MB-231 breast
MDA-MB-435 = system: MDA-MB-435
MDA-MB-468 breast = system: MDA-MB-468 breast
MOLT-4 leukemia = system: MOLT-4 leukemia
NCI-H226 lung = system: NCI-H226 lung
NCI-H23 lung = system: NCI-H23 lung
NCI-H460 lung = system: NCI-H460 lung
NCI-H522 lung = system: NCI-H522 lung
OVCAR-3 ovarian = system: OVCAR-3 ovarian
OVCAR-4 ovarian = system: OVCAR-4 ovarian
OVCAR-5 ovarian = system: OVCAR-5 ovarian
OVCAR-8 ovarian = system: OVCAR-8 ovarian
PC-3 prostate = system: PC-3 prostate
RPMI-8226 leukemia = system: RPMI-8226 leukemia
RXF 393 renal = system: RXF 393 renal
SF-268 CNS = system: SF-268 CNS
SF-295 CNS = system: SF-295 CNS
SF-539 CNS = system: SF-539 CNS
SK-MEL-2 melanoma = system: SK-MEL-2 melanoma
SK-MEL-28 melanoma = system: SK-MEL-28 melanoma
SK-MEL-5 melanoma = system: SK-MEL-5 melanoma
SK-OV-3 ovarian = system: SK-OV-3 ovarian
SN12C renal = system: SN12C renal
SNB-19 CNS = system: SNB-19 CNS
SNB-75 CNS = system: SNB-75 CNS
SR leukemia = system: SR leukemia
SW-620 colon = system: SW-620 colon
T-47D breast = system: T-47D breast
TK-10 renal = system: TK-10 renal
U251 CNS = system: U251 CNS
UACC-257 melanoma = system: UACC-257 melanoma
UACC-62 melanoma = system: UACC-62 melanoma
UO-31 renal = system: UO-31 renal
NCI/ADR-RES ovarian = system: NCI/ADR-RES ovarian

## CSc1ccc(NC(=O)c2ccc3nnn(/C(C#N)=C/c4ccccn4)c3c2)cc1
786-0 renal
  GI50: 1.57 µM
  TGI: 3.05 µM
A498 renal
  GI50: 9.47 µM
  TGI: 21.4 µM
A549 NSCLC
  GI50: 2.91 µM
  TGI: 11 µM
ACHN renal
  GI50: 1.69 µM
  TGI: 3.06 µM
BT-549 breast
  GI50: 1.61 µM
  TGI: 3.13 µM
CAKI-1 renal
  GI50: 1.2 µM
  TGI: 2.46 µM
CCRF-CEM leukemia
  GI50: 1.38 µM
  TGI: 8.01 µM
COLO 205 colon
  GI50: 1.11 µM
  TGI: 2.39 µM
DU-145 prostate
  GI50: 1.63 µM
  TGI: 2.99 µM
EKVX NSCLC
  GI50: 1.59 µM
  TGI: 3 µM
HCC-2998 colon
  GI50: 1.65 µM
  TGI: 3.01 µM
HCT-116 colon
  GI50: 1.74 µM
  TGI: 3.55 µM
HCT-15 colon
  GI50: 1040 nM
  TGI: 2.3 µM
HL-60(TB) leukemia
  GI50: 1.59 µM
  TGI: 7.08 µM
HOP-62 NSCLC
  GI50: 2.21 µM
  TGI: 5.63 µM
HOP-92 NSCLC
  GI50: 1.5 µM
  TGI: 3.2 µM
HS 578T breast
  GI50: 2.07 µM
  TGI: 4.96 µM
HT29 colon
  GI50: 1.89 µM
  TGI: 3.89 µM
IGROV1 ovarian
  GI50: 1.87 µM
  TGI: 3.57 µM
K-562 leukemia
  GI50: 1230 nM
  TGI: > 100 µM
KM12 colon
  GI50: 1.6 µM
  TGI: 3.27 µM
LOX IMVI melanoma
  GI50: 0.879 µM
  TGI: 2.12 µM
M14 melanoma
  GI50: 1.67 µM
  TGI: 3.27 µM
MALME-3M melanoma
  GI50: 1.57 µM
  TGI: 2.96 µM
MCF7 breast
  GI50: 1010 nM
  TGI: 2.51 µM
MDA-MB-231 breast
  GI50: 1.75 µM
  TGI: 3.21 µM
MDA-MB-435
  GI50: 1.46 µM
  TGI: 2.92 µM
MDA-MB-468 breast
  GI50: 904 nM
  TGI: 2.28 µM
MOLT-4 leukemia
  GI50: 1.83 µM
  TGI: 8.33 µM
NCI-H226 lung
  GI50: 2.29 µM
  TGI: 6.14 µM
NCI-H23 lung
  GI50: 1.59 µM
  TGI: 2.97 µM
NCI-H460 lung
  GI50: 1.93 µM
  TGI: 4.59 µM
NCI-H522 lung
  GI50: 1.25 µM
  TGI: 2.65 µM
OVCAR-3 ovarian
  GI50: 1.22 µM
  TGI: 2.54 µM
OVCAR-4 ovarian
  GI50: 1.64 µM
  TGI: 3.01 µM
OVCAR-5 ovarian
  GI50: 1.6 µM
  TGI: 3.02 µM
OVCAR-8 ovarian
  GI50: 1.75 µM
  TGI: 3.68 µM
PC-3 prostate
  GI50: 2.04 µM
  TGI: 4.37 µM
RPMI-8226 leukemia
  GI50: 1460 nM
  TGI: 4.7 µM
RXF 393 renal
  GI50: 1320 nM
  TGI: 2.6 µM
SF-268 CNS
  GI50: 2.47 µM
  TGI: 7.06 µM
SF-295 CNS
  GI50: 1.88 µM
  TGI: 4.66 µM
SF-539 CNS
  GI50: 1.61 µM
  TGI: 2.97 µM
SK-MEL-2 melanoma
  GI50: 1.71 µM
  TGI: 3.22 µM
SK-MEL-28 melanoma
  GI50: 1.48 µM
  TGI: 2.82 µM
SK-MEL-5 melanoma
  GI50: 1.64 µM
  TGI: 3.05 µM
SK-OV-3 ovarian
  GI50: 5.49 µM
  TGI: 18 µM
SN12C renal
  GI50: 1.78 µM
  TGI: 3.51 µM
SNB-19 CNS
  GI50: 2.74 µM
  TGI: 8.65 µM
SNB-75 CNS
  GI50: 1.82 µM
  TGI: 4.38 µM
SR leukemia
  GI50: 1.65 µM
  TGI: 34.4 µM
SW-620 colon
  GI50: 0.763 µM
  TGI: 2.14 µM
T-47D breast
  GI50: 1.33 µM
  TGI: 3.06 µM
TK-10 renal
  GI50: 1.57 µM
  TGI: 2.98 µM
U251 CNS
  GI50: 1.56 µM
  TGI: 3.05 µM
UACC-257 melanoma
  GI50: 1.6 µM
  TGI: 3.07 µM
UACC-62 melanoma
  GI50: 1.61 µM
  TGI: 3.05 µM
UO-31 renal
  GI50: 1.35 µM
  TGI: 2.64 µM

## COc1ccc(/C=C/C(=O)c2ccc(N3CCN(C)CC3)cc2)c(C(F)(F)F)c1
786-0 renal
  GI50: 12.5 µM
  TGI: 37.7 µM
A498 renal
  GI50: 16.5 µM
  TGI: 30.8 µM
A549 NSCLC
  GI50: 13.2 µM
  TGI: 30.1 µM
ACHN renal
  GI50: 15.1 µM
  TGI: 28.3 µM
BT-549 breast
  GI50: 14.5 µM
  TGI: 29.1 µM
CAKI-1 renal
  GI50: 14.2 µM
  TGI: 27.5 µM
CCRF-CEM leukemia
  GI50: 7.61 µM
  TGI: 53.1 µM
COLO 205 colon
  GI50: 15.6 µM
  TGI: 35.5 µM
DU-145 prostate
  GI50: 14.9 µM
  TGI: 31.2 µM
EKVX NSCLC
  GI50: 12.7 µM
  TGI: 25.4 µM
HCC-2998 colon
  GI50: 12 µM
  TGI: 24.3 µM
HCT-116 colon
  GI50: 5.61 µM
  TGI: 39 µM
HCT-15 colon
  GI50: 4610 nM
  TGI: 16.5 µM
HL-60(TB) leukemia
  GI50: 4.87 µM
  TGI: 24.7 µM
HOP-62 NSCLC
  GI50: 19.3 µM
  TGI: 37 µM
HOP-92 NSCLC
  GI50: 10.1 µM
  TGI: 25.8 µM
HS 578T breast
  GI50: 14.9 µM
  TGI: 46.5 µM
HT29 colon
  GI50: 4.88 µM
  TGI: 22.3 µM
IGROV1 ovarian
  GI50: 15.4 µM
  TGI: 29 µM
K-562 leukemia
  GI50: 2960 nM
  TGI: 22.1 µM
KM12 colon
  GI50: 11 µM
  TGI: 24.9 µM
LOX IMVI melanoma
  GI50: 8.56 µM
  TGI: 20.9 µM
M14 melanoma
  GI50: 14.4 µM
  TGI: 34.5 µM
MALME-3M melanoma
  GI50: 12.9 µM
  TGI: 25.6 µM
MCF7 breast
  GI50: 4600 nM
  TGI: 19.5 µM
MDA-MB-231 breast
  GI50: 16.8 µM
  TGI: 30.5 µM
MDA-MB-435
  GI50: 11.3 µM
  TGI: 24.7 µM
MDA-MB-468 breast
  GI50: 3540 nM
  TGI: 13.9 µM
MOLT-4 leukemia
  GI50: 9.11 µM
  TGI: 32.8 µM
NCI-H226 lung
  GI50: 12.4 µM
  TGI: 28.3 µM
NCI-H23 lung
  GI50: 11.2 µM
  TGI: 23.2 µM
NCI-H460 lung
  GI50: 14 µM
  TGI: 27.9 µM
NCI-H522 lung
  GI50: 15.9 µM
  TGI: 31.9 µM
NCI/ADR-RES ovarian
  GI50: 13.2 µM
  TGI: 26.4 µM
OVCAR-3 ovarian
  GI50: 14.4 µM
  TGI: 29.3 µM
OVCAR-4 ovarian
  GI50: 15.5 µM
  TGI: 34.4 µM
OVCAR-5 ovarian
  GI50: 16.2 µM
  TGI: 29.7 µM
OVCAR-8 ovarian
  GI50: 20.8 µM
  TGI: 49.3 µM
PC-3 prostate
  GI50: 13.2 µM
  TGI: 40.4 µM
RPMI-8226 leukemia
  GI50: 3400 nM
  TGI: 47.7 µM
RXF 393 renal
  GI50: 4120 nM
  TGI: 18.9 µM
SF-268 CNS
  GI50: 18.9 µM
  TGI: 41 µM
SF-295 CNS
  GI50: 13.9 µM
  TGI: 27.2 µM
SF-539 CNS
  GI50: 14.2 µM
  TGI: 27.2 µM
SK-MEL-2 melanoma
  GI50: 17.5 µM
  TGI: 32.7 µM
SK-MEL-28 melanoma
  GI50: 14.7 µM
  TGI: 27.9 µM
SK-MEL-5 melanoma
  GI50: 7.97 µM
  TGI: 20.6 µM
SK-OV-3 ovarian
  GI50: 16.7 µM
  TGI: 33.5 µM
SN12C renal
  GI50: 13.3 µM
  TGI: 26.4 µM
SNB-19 CNS
  GI50: 14.8 µM
  TGI: 27.9 µM
SNB-75 CNS
  GI50: 11.7 µM
  TGI: 24.5 µM
SR leukemia
  GI50: 6.74 µM
  TGI: > 100 µM
SW-620 colon
  GI50: 11.2 µM
  TGI: 23.9 µM
T-47D breast
  GI50: 13.7 µM
  TGI: 34.6 µM
TK-10 renal
  GI50: 17.7 µM
  TGI: 32.8 µM
U251 CNS
  GI50: 11.7 µM
  TGI: 34.4 µM
UACC-257 melanoma
  GI50: 15.3 µM
  TGI: 30.8 µM
UACC-62 melanoma
  GI50: 14.1 µM
  TGI: 27 µM
UO-31 renal
  GI50: 12.3 µM
  TGI: 24.7 µM
